{
  "source": "ChEMBL document CHEMBL5321279",
  "about": "(J Med Chem, 2023)",
  "key": {"[1]": {"assay": "(§1) Cytotoxicity against human HepG2 cells assessed as reduction in cell growth measured after 5 days by CellTiter-Glo assay", "assay_type": "toxicity, cell-based", "settings": "HepG2 cells, time 5 day"}, "[2]": {"assay": "AUC(0 to 24 hrs) in African green monkey at 20 mg/kg, iv measured upto 24 hrs by LC-MS/MS analysis", "assay_type": "ADME, organism-based", "set-up": "dose 20 mg/kg, time < 24 hrs, route iv", "settings": "chlorocebus sabaeus, in vivo"}, "[3]": {"assay": "Prodrug conversion in cynomolgus monkey assessed as Nucleotide triphosphate metabolite formation in lung at 20 mg/kg, iv measured upto 24 hrs by LC-MS/MS analysis", "assay_type": "ADME, organism-based, Macaca fascicularis", "settings": "in vivo"}, "[4]": {"assay": "Prodrug conversion in African green monkey assessed as Nucleotide triphosphate metabolite formation in lung at 20 mg/kg, iv measured upto 24 hrs by LC-MS/MS analysis", "assay_type": "ADME, organism-based", "settings": "chlorocebus aethiops, in vivo"}, "[5]": {"assay": "AUC(0 to 24 hrs) in cynomolgus monkey at 5 mg/kg, po measured upto 24 hrs by LC-MS/MS analysis", "assay_type": "ADME, organism-based, Macaca fascicularis", "set-up": "dose 5 mg/kg, time < 24 hrs, route po", "settings": "in vivo"}, "[6]": {"assay": "AUC(0 to 24 hrs) in African green monkey at 5 mg/kg, po measured upto 24 hrs by LC-MS/MS analysis", "assay_type": "ADME, organism-based", "set-up": "time < 24 hrs, dose 5 mg/kg, route po", "settings": "chlorocebus sabaeus, in vivo"}, "[7]": {"assay": "Aqueous stability of the compound assessed as compound remaining at pH 7 measured at 24 hrs by UPLC analysis", "assay_type": "physicochemical", "settings": "aqueous solution, read-out: Stability"}, "[8]": {"assay": "Stability of compound in rat gastrointestinal S9 fraction assessed as half life at pH 7.4 measured upto 120 mins by LC-MS/MS analysis", "assay_type": "ADME, subcellular, Gastrointestinal tract"}, "[9]": {"assay": "Stability of compound in cynomolgus monkey gastrointestinal S9 fraction assessed as half life at pH 7.4 measured upto 120 mins by LC-MS/MS analysis", "assay_type": "ADME, subcellular, Macaca fascicularis, Gastrointestinal tract"}, "[10]": {"system": "CES1b", "assay": "Stability of compound assessed as human recombinant CES1b-mediated compound hydrolysis by measuring half life at pH 7.4 using oseltamivir as substrate measured upto 120 mins by LC-MS/MS analysis", "assay_type": "ADME", "settings": "pH 7.4, probe oseltamivir"}, "[11]": {"assay": "Oral bioavailability in rat assessed as prodrug conversion by measuring (2R,3R,4S,5R)-2-(4-aminopyrrolo[2,1-f][1,2,4]triazin-7-yl)-3,4-dihydroxy-5-(hydroxymethyl)tetrahydrofuran-2-carbonitrile at 6 mg/kg administered in solid form measured upto 24 hrs by LC-MS/MS analysis", "assay_type": "ADME, organism-based", "settings": "in vivo"}, "[12]": {"assay": "AUC(0 to 24 hrs) in dog at […], po measured upto 24 hrs by LC-MS/MS analysis", "assay_type": "ADME, organism-based, Canis lupus familiaris", "settings": "in vivo"}, "[13]": {"assay": "Prodrug conversion in African green monkey assessed as Nucleotide triphosphate metabolite formation in lung at 60 mg/kg, po measured upto 24 hrs by LC-MS/MS analysis", "assay_type": "ADME, organism-based", "settings": "chlorocebus aethiops, in vivo"}, "[14]": {"assay": "Oral bioavailability in dog assessed as prodrug conversion by measuring (2R,3R,4S,5R)-2-(4-aminopyrrolo[2,1-f][1,2,4]triazin-7-yl)-3,4-dihydroxy-5-(hydroxymethyl)tetrahydrofuran-2-carbonitrile at […] administered in solid form measured upto 24 hrs by LC-MS/MS analysis", "assay_type": "ADME, organism-based, Canis lupus familiaris", "settings": "in vivo"}, "[15]": {"system": "HepG2", "assay": "as §1", "assay_type": "toxicity, cell-based", "settings": "hepg2, 120 h, time 5 day"}, "[16]": {"assay": "Half life in rat assessed as prodrug conversion by measuring (2R,3R,4S,5R)-2-(4-aminopyrrolo[2,1-f][1,2,4]triazin-7-yl)-3,4-dihydroxy-5-(hydroxymethyl)tetrahydrofuran-2-carbonitrile at 6 mg/kg, po measured upto 24 hrs by LC-MS/MS analysis", "assay_type": "ADME, organism-based", "settings": "in vivo"}, "[17]": {"assay": "Half life in African green monkey assessed as prodrug conversion by measuring (2R,3R,4S,5R)-2-(4-aminopyrrolo[2,1-f][1,2,4]triazin-7-yl)-3,4-dihydroxy-5-(hydroxymethyl)tetrahydrofuran-2-carbonitrile at […], po measured upto 24 hrs by LC-MS/MS analysis", "assay_type": "ADME, organism-based", "settings": "chlorocebus sabaeus, in vivo"}, "[18]": {"assay": "Half life in African green monkey assessed as prodrug conversion by measuring (2R,3R,4S,5R)-2-(4-aminopyrrolo[2,1-f][1,2,4]triazin-7-yl)-3,4-dihydroxy-5-(hydroxymethyl)tetrahydrofuran-2-carbonitrile at 60 mg/kg, po measured upto 24 hrs by LC-MS/MS analysis", "assay_type": "ADME, organism-based", "settings": "chlorocebus sabaeus, in vivo"}, "[19]": {"assay": "Cmax in African green monkey assessed as prodrug conversion by measuring (2R,3R,4S,5R)-2-(4-aminopyrrolo[2,1-f][1,2,4]triazin-7-yl)-3,4-dihydroxy-5-(hydroxymethyl)tetrahydrofuran-2-carbonitrile at […], po measured upto 24 hrs by LC-MS/MS analysis", "assay_type": "ADME, organism-based", "settings": "chlorocebus sabaeus, in vivo"}, "[20]": {"assay": "Cmax in African green monkey assessed as prodrug conversion by measuring (2R,3R,4S,5R)-2-(4-aminopyrrolo[2,1-f][1,2,4]triazin-7-yl)-3,4-dihydroxy-5-(hydroxymethyl)tetrahydrofuran-2-carbonitrile at 86.5 mg/kg, po measured upto 24 hrs by LC-MS/MS analysis", "assay_type": "ADME, organism-based", "set-up": "dose 86.5 mg/kg, time < 24 hrs, route po", "settings": "chlorocebus sabaeus, in vivo"}, "[21]": {"assay": "AUC(0 to 24 hrs) in cynomolgus monkey assessed as prodrug conversion by measuring (2R,3R,4S,5R)-2-(4-aminopyrrolo[2,1-f][1,2,4]triazin-7-yl)-3,4-dihydroxy-5-(hydroxymethyl)tetrahydrofuran-2-carbonitrile at 11.7 mg/kg, po measured upto 24 hrs by LC-MS/MS analysis", "assay_type": "ADME, organism-based, Macaca fascicularis", "set-up": "dose 11.7 mg/kg, time < 24 hrs, route po", "settings": "in vivo"}, "[22]": {"assay": "AUC(0 to 24 hrs) in African green monkey assessed as prodrug conversion by measuring (2R,3R,4S,5R)-2-(4-aminopyrrolo[2,1-f][1,2,4]triazin-7-yl)-3,4-dihydroxy-5-(hydroxymethyl)tetrahydrofuran-2-carbonitrile at […], po measured upto 24 hrs by LC-MS/MS analysis", "assay_type": "ADME, organism-based", "settings": "chlorocebus sabaeus, in vivo"}, "[23]": {"assay": "AUC(0 to 24 hrs) in African green monkey assessed as prodrug conversion by measuring (2R,3R,4S,5R)-2-(4-aminopyrrolo[2,1-f][1,2,4]triazin-7-yl)-3,4-dihydroxy-5-(hydroxymethyl)tetrahydrofuran-2-carbonitrile at 86.5 mg/kg, po measured upto 24 hrs by LC-MS/MS analysis", "assay_type": "ADME, organism-based", "set-up": "dose 86.5 mg/kg, time < 24 hrs, route po", "settings": "chlorocebus sabaeus, in vivo"}, "[24]": {"system": "SARS-CoV-2", "assay": "Antiviral activity against SARS-CoV-2 infected in African green monkey assessed as reduction in viral load in BALF at 120 mg/kg, po qd administered for 6 days starting from 8 hrs post infection by PFA assay", "assay_type": "functional, organism-based", "settings": "Severe acute respiratory syndrome coronavirus 2, time 6.0 day"}, "[25]": {"system": "SARS-CoV-2", "assay": "Antiviral activity against SARS-CoV-2 infected in African green monkey assessed as reduction in viral genomic RNA load in throat swabs at 60 to 120 mg/kg, po qd administered for 1 day starting from 8 hrs post infection by RT-qPCR analysis", "assay_type": "functional, organism-based", "settings": "Severe acute respiratory syndrome coronavirus 2, dose lower 60.0 mg/kg, dose upper […]"}, "[26]": {"system": "SARS-CoV-2", "assay": "Antiviral activity against SARS-CoV-2 infected in African green monkey assessed as reduction in viral genomic RNA load in throat swabs at 60 to 120 mg/kg, po qd administered for 2 days starting from 8 hrs post infection by RT-qPCR analysis", "assay_type": "functional, organism-based", "settings": "Severe acute respiratory syndrome coronavirus 2, dose lower 60.0 mg/kg, dose upper […], time 2.0 day"}, "[27]": {"system": "SARS-CoV-2", "assay": "Antiviral activity against SARS-CoV-2 infected in African green monkey assessed as reduction in viral genomic RNA load in throat swabs at 120 mg/kg, po qd administered for 4 days starting from 8 hrs post infection by RT-qPCR analysis", "assay_type": "functional, organism-based", "settings": "Severe acute respiratory syndrome coronavirus 2, time 4.0 day"}, "[28]": {"assay": "AUC(0 to 24 hrs) in African green monkey infected with SARS-CoV-2 assessed as prodrug conversion by measuring (2R,3R,4S,5R)-2-(4-aminopyrrolo[2,1-f][1,2,4]triazin-7-yl)-3,4-dihydroxy-5-(hydroxymethyl)tetrahydrofuran-2-carbonitrile at 60 mg/kg, po qd measured after 6 days by LC-MS/MS analysis", "assay_type": "ADME, organism-based, Severe acute respiratory syndrome coronavirus 2", "set-up": "time 6 day, dose 60 mg/kg, route po", "settings": "in vivo"}},
  "note": "Calls of active or inactive are those of the source. The rule behind the calls is not given here.",
  "data": [
    {"smiles": "CCC(CC)COC(=O)[C@H](C)N[P@](=O)(OC[C@H]1O[C@@](C#N)(c2ccc3c(N)ncnn23)[C@H](O)[C@@H]1O)Oc1ccccc1", "values": [
      {"measurement": "CC50 at 120 h", "setting": "[1]", "value": 11.1, "unit": "µM"}
    ]},
    {"smiles": "N#C[C@@]1(c2ccc3c(N)ncnn23)O[C@H](CO)[C@@H](O)[C@H]1O", "note": "[GS-441524]", "values": [
      {"measurement": "AUC", "setting": "[2]", "value": 147, "unit": "µM·h"},
      {"measurement": "Drug metabolism", "setting": "[3]", "value": 0.41, "unit": "nmol/g"},
      {"measurement": "Drug metabolism", "setting": "[4]", "value": 0.23, "unit": "nmol/g"},
      {"measurement": "AUC", "setting": "[5]", "value": 1.67, "unit": "µM·h"},
      {"measurement": "AUC", "setting": "[6]", "value": 3.15, "unit": "µM·h"}
    ]},
    {"smiles": "CC(C)C(=O)OC[C@H]1O[C@@](C#N)(c2ccc3c(N)ncnn23)[C@H](O)[C@@H]1O", "note": "[OBELDESIVIR]", "values": [
      {"measurement": "remaining at 24 h", "setting": "[7]", "value": "≥ 96", "unit": "%"},
      {"measurement": "half-life", "setting": "[8]", "value": "> 2", "unit": "min"},
      {"measurement": "half-life", "setting": "[9]", "value": "< 2", "unit": "min"},
      {"measurement": "half-life", "setting": "[10]", "value": 4, "unit": "min"},
      {"measurement": "F", "setting": "[11]", "value": 90, "unit": "%"},
      {"measurement": "AUC", "setting": "[12]", "value": 0.4, "unit": "µM·h"},
      {"measurement": "Drug metabolism", "setting": "[13]", "value": 0.31, "unit": "nmol/g"},
      {"measurement": "F", "setting": "[14]", "value": 67, "unit": "%"},
      {"measurement": "CC50", "setting": "[15]", "value": 71, "unit": "µM"},
      {"measurement": "t1/2", "setting": "[16]", "value": 121, "unit": "min"},
      {"measurement": "t1/2", "setting": "[17]", "value": 191, "unit": "min"},
      {"measurement": "t1/2", "setting": "[18]", "value": 174, "unit": "min"},
      {"measurement": "Cmax", "setting": "[19]", "value": 6.81, "unit": "µM"},
      {"measurement": "Cmax", "setting": "[20]", "value": 19.6, "unit": "µM"},
      {"measurement": "AUC", "setting": "[21]", "value": 21.6, "unit": "µM·h"},
      {"measurement": "AUC", "setting": "[22]", "value": 26.6, "unit": "µM·h"},
      {"measurement": "AUC", "setting": "[23]", "value": 136, "unit": "µM·h"},
      {"measurement": "Activity", "setting": "[24]", "value": "Active"},
      {"measurement": "Activity", "setting": "[25]", "value": "Active"},
      {"measurement": "Activity", "setting": "[26]", "value": "Active"},
      {"measurement": "Activity", "setting": "[27]", "value": "Active"},
      {"measurement": "AUC", "setting": "[28]", "value": 111, "unit": "µM·h"}
    ]}
  ]
}
